From PubChem BioAssay AID248 (DTP/NCI, 2004)
Several values for one entry are separate records, joined by “and”; a condition that tells them apart may be missing. Equal entries are not always repeated. Toxic doses and inconclusive results are not listed. Rule as the data show it: active = T/C of 150% or more; inactive = T/C below 125%.

System: L1210 leukemia ip in BDF1 mice, survival T/C
Assay: NCI In Vivo Anticancer Drug Screen. Data for tumor model L1210 Leukemia (intraperitoneal) in B6D2F1 (BDF1) mice
Settings: endpoint: mean survival time, higher = longer survival
How it was run: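 Transplantable tumor model; survival measured in treated vs vehicle control mice. Value = treated/control.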

[1] = dose: 100.0 mg/kg/injection, schedule: Q01DX001 (ip), vehicle: carboxymethylcellulose (CMC)
[2] = dose: 200.0 mg/kg/injection, schedule: Q01DX001 (ip), vehicle: carboxymethylcellulose (CMC)
[3] = dose: 400.0 mg/kg/injection, schedule: Q01DX001 (ip), vehicle: carboxymethylcellulose (CMC)
[4] = dose: 100.0 mg/kg/injection, schedule: Q01DX009 (ip), vehicle: saline with Tween-80
[5] = dose: 100.0 mg/kg/injection, schedule: Q04DX003 (ip), vehicle: saline with Tween-80
[6] = dose: 200.0 mg/kg/injection, schedule: Q01DX009 (ip), vehicle: saline with Tween-80
[7] = dose: 200.0 mg/kg/injection, schedule: Q04DX003 (ip), vehicle: saline with Tween-80
[8] = dose: 400.0 mg/kg/injection, schedule: Q01DX009 (ip), vehicle: saline with Tween-80
[9] = dose: 400.0 mg/kg/injection, schedule: Q04DX003 (ip), vehicle: saline with Tween-80
[10] = dose: 25.0 mg/kg/injection, schedule: Q01DX001 (ip), vehicle: saline with Tween-80
[11] = dose: 100.0 mg/kg/injection, schedule: Q01DX009 (ip), vehicle: Klucel (hydroxypropylcellulose) (HPC)
[12] = dose: 100.0 mg/kg/injection, schedule: Q04DX003 (ip), vehicle: Klucel (hydroxypropylcellulose) (HPC)
[13] = dose: 200.0 mg/kg/injection, schedule: Q01DX009 (ip), vehicle: Klucel (hydroxypropylcellulose) (HPC)
[14] = dose: 200.0 mg/kg/injection, schedule: Q04DX003 (ip), vehicle: Klucel (hydroxypropylcellulose) (HPC)
[15] = dose: 100.0 mg/kg/injection, schedule: Q04DX003 (ip), vehicle: saline
[16] = dose: 200.0 mg/kg/injection, schedule: Q04DX003 (ip), vehicle: saline
[17] = dose: 400.0 mg/kg/injection, schedule: Q04DX003 (ip), vehicle: saline
[18] = dose: 50.0 mg/kg/injection, schedule: Q01DX001 (ip), vehicle: carboxymethylcellulose (CMC)
[19] = dose: 100.0 mg/kg/injection, schedule: Q01DX009 (ip), vehicle: saline
[20] = dose: 200.0 mg/kg/injection, schedule: Q01DX009 (ip), vehicle: saline
[21] = dose: 400.0 mg/kg/injection, schedule: Q01DX009 (ip), vehicle: saline

Measured: T/C

COc1cc([N+](=O)[O-])c(C)c(Br)c1N
inactive: [1] 100 % of control | [2] 100 % of control | [3] 96 % of control

O=C(Cn1ccc(O)cc1=O)c1ccc(Cl)s1
inactive: [4] 111 % of control | [5] 98 % of control | [6] 90 % of control | [7] 93 % of control | [8] 91 % of control | [9] 98 % of control

O=C1CCC(=O)N1C1C=CC=CC=C1
inactive: [5] 98 % of control | [7] 97 % of control | [9] 96 % of control

OC1C2CCC(C2)C1C(O)(C(F)(F)Cl)C(F)(F)Cl (stereo not drawn)
inactive: [5] 93 % of control | [7] 92 % of control | [9] 97 % of control

O=C1C(Cl)=C(NC2CCCC2)C(=O)c2ccccc21
inactive: dose: 12.5 mg/kg/injection, schedule: Q01DX001 (ip), vehicle: saline with Tween-80 94 % of control | [10] 94 % of control

CC(=O)[C@H]1[C@H](C)C[C@H]2[C@@H]3CCC4=CC(=O)CC[C@]4(C)[C@@]3(F)[C@@H](O)C[C@@]21C
inactive: [11] 103 % of control | [12] 100 % of control | [13] 101 % of control | [14] 97 % of control | dose: 400.0 mg/kg/injection, schedule: Q01DX009 (ip), vehicle: Klucel (hydroxypropylcellulose) (HPC) 97 % of control | dose: 400.0 mg/kg/injection, schedule: Q04DX003 (ip), vehicle: Klucel (hydroxypropylcellulose) (HPC) 101 % of control

C=CCCC1CC(C(C)C)CC2(C1)OCCO2 (stereo not drawn)
inactive: dose: 50.0 mg/kg/injection, schedule: Q01DX009 (ip), vehicle: saline with Tween-80 96 % of control | [4] 96 % of control

Cc1ccccc1Sc1cc2ccccc2c2ccccc12
inactive: dose: 100.0 mg/kg/injection, schedule: Q01DX001 (ip), vehicle: saline 94 % of control | [4] 96 % of control | dose: 200.0 mg/kg/injection, schedule: Q01DX001 (ip), vehicle: saline 97 % of control | [6] 98 % of control | dose: 400.0 mg/kg/injection, schedule: Q01DX001 (ip), vehicle: saline 94 % of control | [8] 101 % of control

CN(C)C(=O)C1C2CCC(C3CC32)C1C(=O)N(C)C (stereo not drawn)
inactive: dose: 75.0 mg/kg/injection, schedule: Q01DX009 (ip), vehicle: saline 95 % of control | [15] 106 % of control | dose: 150.0 mg/kg/injection, schedule: Q01DX009 (ip), vehicle: saline 97 % of control | [16] 106 % of control | dose: 300.0 mg/kg/injection, schedule: Q01DX009 (ip), vehicle: saline 95 % of control | [17] 103 % of control

CN1C(c2ccccc2)NC(=O)C12CCN(CCCC(=O)c1ccccc1)CC2 (stereo not drawn)
inactive: dose: 100.0 mg/kg/injection, schedule: Q01DX001 (ip), vehicle: Klucel (hydroxypropylcellulose) (HPC) 100 % of control | dose: 200.0 mg/kg/injection, schedule: Q01DX001 (ip), vehicle: Klucel (hydroxypropylcellulose) (HPC) 96 % of control | dose: 400.0 mg/kg/injection, schedule: Q01DX001 (ip), vehicle: Klucel (hydroxypropylcellulose) (HPC) 100 % of control

O=C(O)c1ccccc1N=Cc1ccc(N(CCCl)CCCl)cc1
inactive: [18] 103 % of control | [1] 122 % of control | [2] 114 % of control | [3] 111 % of control

O=c1c(Cl)c(C(Cl)(Cl)Cl)[nH]c2ccc([N+](=O)[O-])cc12
inactive: [10] 101 % of control | dose: 50.0 mg/kg/injection, schedule: Q01DX001 (ip), vehicle: saline with Tween-80 101 % of control

CC(=O)OCC(OC(C)=O)C(OC(C)=O)C(OC(C)=O)C(OC(C)=O)C(C=O)OC(C)=O (stereo not drawn)
inactive: [5] 92 % of control | [7] 95 % of control | [9] 106 % of control

CCN(Cc1ccccc1)C(=O)NC(C)(C)C
inactive: [11] 98 % of control | [13] 95 % of control

Nc1cccc2[nH]cnc12
inactive: [19] 98 % of control | [15] 106 % of control | [20] 111 % of control | [16] 104 % of control | [21] 93 % of control | [17] 101 % of control

Cc1cc(=O)[nH]c2c1C(=O)c1c(C)cc(=O)n(C)c1C2=O
inactive: dose: 0.75 mg/kg/injection, schedule: Q01DX009 (ip), vehicle: Klucel (hydroxypropylcellulose) (HPC) 95 % of control | dose: 1.0 mg/kg/injection, schedule: Q04DX003 (ip), vehicle: Klucel (hydroxypropylcellulose) (HPC) 93 % of control | dose: 1.5 mg/kg/injection, schedule: Q01DX009 (ip), vehicle: Klucel (hydroxypropylcellulose) (HPC) 100 % of control | dose: 3.0 mg/kg/injection, schedule: Q01DX009 (ip), vehicle: Klucel (hydroxypropylcellulose) (HPC) 95 % of control and 96 % of control | dose: 3.0 mg/kg/injection, schedule: Q04DX003 (ip), vehicle: Klucel (hydroxypropylcellulose) (HPC) 105 % of control | dose: 6.0 mg/kg/injection, schedule: Q04DX003 (ip), vehicle: Klucel (hydroxypropylcellulose) (HPC) 92 % of control

COC(=O)CCN1CCC1
inactive: dose: 100.0 mg/kg/injection, schedule: Q04DX002 (ip), vehicle: saline 97 % of control | dose: 200.0 mg/kg/injection, schedule: Q04DX002 (ip), vehicle: saline 101 % of control | dose: 400.0 mg/kg/injection, schedule: Q04DX002 (ip), vehicle: saline 97 % of control

CCC/C=C(\C)C#CC1=CCCCC1
inactive: [18] 97 % of control | [1] 100 % of control | [2] 94 % of control | [3] 97 % of control

O=C(Nc1ncccn1)Nc1cccc2ccccc12
inactive: dose: 12.5 mg/kg/injection, schedule: Q04DX002 (ip), vehicle: Klucel (hydroxypropylcellulose) (HPC) 102 % of control | dose: 25.0 mg/kg/injection, schedule: Q04DX002 (ip), vehicle: Klucel (hydroxypropylcellulose) (HPC) 97 % of control | dose: 50.0 mg/kg/injection, schedule: Q04DX002 (ip), vehicle: Klucel (hydroxypropylcellulose) (HPC) 97 % of control | dose: 100.0 mg/kg/injection, schedule: Q04DX002 (ip), vehicle: Klucel (hydroxypropylcellulose) (HPC) 92 % of control | dose: 200.0 mg/kg/injection, schedule: Q04DX002 (ip), vehicle: Klucel (hydroxypropylcellulose) (HPC) 92 % of control | dose: 400.0 mg/kg/injection, schedule: Q04DX002 (ip), vehicle: Klucel (hydroxypropylcellulose) (HPC) 95 % of control

COC(C)C(OC)OC (stereo not drawn)
inactive: [19] 98 % of control | [15] 101 % of control | [20] 96 % of control | [16] 103 % of control | [21] 96 % of control | [17] 92 % of control

CC(=O)C(C)=P(c1ccccc1)(c1ccccc1)c1ccccc1
inactive: dose: 25.0 mg/kg/injection, schedule: Q01DX009 (ip), vehicle: saline 101 % of control | dose: 50.0 mg/kg/injection, schedule: Q01DX009 (ip), vehicle: saline 102 % of control | [19] 96 % of control | [15] 98 % of control | [16] 88 % of control | [17] 88 % of control

COc1ccccc1N=Nc1ccc(O)c(C(=O)O)c1
inactive: [12] 102 % of control | [14] 103 % of control

O=[N+]([O-])C12CCCCC1([N+](=O)[O-])CCCC2 (stereo not drawn)
inactive: [15] 103 % of control | [16] 92 % of control | [17] 108 % of control
